Measured values from paper PMC5855875, “Teixobactin analogues reveal enduracididine to be non-essential for highly potent antibacterial activity and lipid II binding” (Chemical Science, 2017).
In brackets after ≈: the same amount, converted by molar mass. Bridge positions count the residues as written; N and C are the ends. Square brackets hold non-standard residues; d marks the D form. Peptide text beside a SMILES is read from it. d(aIle) = CC[C@H](C)[C@@H](N)C(=O)O; dNMeF = CN[C@H](Cc1ccccc1)C(=O)O

Experiments:
MRSA ATCC 33591 = assay: microbe, parasite or virus in culture
Procedure: (§1) were grown in Mueller Hinton broth (Oxoid) in triplicate. All incubations were at 37°C. Dilutions were carried out in triplicate. 100 µl of autoclaved Mueller Hinton broth was added to wells 2-12 in a 96-well plate. 200 µl of the peptide was added to well one at a concentration of 256 µg/mL. 100µl of peptide in well one was taken up and pipetted into well two. The mixture was then mixed via pipetting before 100µl was taken up and pipetted into well three. This process was repeated up to well 11. Once […]
(§2) peptide present. Thus, the concentrations (in µg/mL) were: 256, 128, 64, 32, 16, 8, 4, 2, 1, 0.5, 0.25 and no peptide present. Each well was then inoculated with 100µl of bacteria that had been diluted to an […]
(§3) This was repeated three times. The 96-well plates were then incubated at 37°C for 24 hours. The MIC was determined to be the lowest concentration at which there was no growth visible. […]
(§4) was repeated at an altered initial concentration of 64 µg/ml. Therefore, the new concentrations for MIC […]
(§5) VIII. MIC testing (extended panel)
(§6) Bacterial cultures were grown overnight i n Mueller-Hinton Agar (MHA) plates and adjusted to a final concentration of 10 5 – 106 CFU/ml. 100 µl of inoculum in Meuller -Hinton broth (MHB) was mixed with equal volume of peptides (dissolved in MHB) at 2x their concentration in a 96 well plate. In parallel experiments, MIC values were determined in the media containing polysorbate 80 (0 .002%, v/v) to […]

MRSA 1: MRSA ATCC 700699 = assay: microbe, parasite or virus in culture; conditions: for MBC: plated on MHA; for MBC / MIC (with polysorbate 80): 24 h; for MIC (with polysorbate 80): MRSA 1, MHB containing polysorbate 80 (0.002%, v/v), two independent duplicates
Procedure: as §5, §6
(§7) prevent non-specific adsorption of the peptides to plastic surfaces. The final peptides concentrations […]
(§8) Positive and negative controls contained 200 µl of inoculum without any peptide dissolved in broth, respectively. The 96 well plates were then incubated at 37 °C for 24 h.
(§9) All the experiments were performed in two independent duplicates and the MIC was determined as the […]
(§10) Minimum bactericidal concentration
(§11) The lowest concentration in which no visible colonies could be detected was taken as the MBC.
(§12) 80. Strain information: MRSA 1: MRSA ATCC 700699, MRSA 2: MRSA DR 42412 (sputum), MRSA
(§13) 3: MRSA DM21455 (eye). […] Staphylococcus aureus ATCC

[1] = tested on: MRSA 3: MRSA DM21455 (eye); assay: microbe, parasite or virus in culture; conditions: for MIC (with polysorbate 80): MRSA 3, MHB containing polysorbate 80 (0.002%, v/v)
Procedure: as §5, §6, §7, §8, §9, §10, §11, §12, §13

[2] = tested on: Staphylococcus aureus ATCC 29213; assay: microbe, parasite or virus in culture; conditions: for MIC (without polysorbate 80): ATCC 29213, 24 h; for MIC (with polysorbate 80): S. aureus ATCC 29213, MHB containing polysorbate 80 (0.002%, v/v); for MIC (with polysorbate 80) / MBC: 37 °C, 24 h; for MBC: Staphylococcus aureus ATCC 29213, plated on MHA
Procedure: as §5, §6, §7, §8, §9, §10, §11, §12, §13

[3] = tested on: MRSA 2: MRSA DR 42412 (sputum); assay: microbe, parasite or virus in culture; conditions: for MIC (with polysorbate 80): MRSA 2, MHB containing polysorbate 80 (0.002%, v/v)
Procedure: as §5, §6, §7
(§14) Positive and negative controls contained 200 µl of inoculum without any peptide dissolved in broth, respectively. The 96 well plates were then incubated at 37 °C for 24 h. […]
as §12, §13

VRE 1: VRE ATCC 700802 = assay: organism not typed; conditions: for MIC (with polysorbate 80): VRE 1, MHB containing polysorbate 80 (0.002%, v/v), 37 °C, 24 h
Procedure: as §5, §6, §7, §14, §12, §13

VRE 2: VRE ATCC 29212 = assay: organism not typed; conditions: for MIC (with polysorbate 80): VRE 2, MHB containing polysorbate 80 (0.002%, v/v), 37 °C, 24 h
Procedure: as §5, §6, §7, §14, §12, §13

M. smegmatis ATCC 607 = assay: microbe, parasite or virus in culture
Procedure: as §1, §2, §3, §4
Middlebrook 7H9 broth (SIGMA) supplemented to 5% Middlebrook ADC (SIGMA) growth

MRSA DM21455 = assay: Time-kill kinetics; type: cell-based, Methicillin-resistant Staphylococcus aureus; conditions: 0.5 μg mL^–1; MHB containing 0.002% v/v polysorbate 80; 37 °C; average of two independent experiments
Procedure: IX. Time-dependent killing of bacteria by teixobactin analogues 12 and 13 Time-kill kinetics against MRSA DM21455 strains (clinical isolates from patients) was carried out in MHB. Cultures were grown overnight in MHA plates and adjusted to a final inoculum of 10^5 – 10^6 CFU/ml in MHB (containing 0.002% v/v, polysorbate 80) with teixobactin analogues 12 and 13 maintained at a final concentration of 0.5 µg/ml. For vancomycin, the concentration was varied from 0.5 – 16 µg/ml without polysorbate 80. The tubes were then incubated at 37 °C. 100 µl of cell suspension was withdrawn at various time points (0, 2, 4, 8, 24 h), serially diluted (101-105 fold dilutions) and plated onto a MHA plates and incubated for 24 h at 37 °C.
Colonies were then enumerated […]. Colony counting too numerous to count (>300 colonies) was taken as 1010 CFU. Average values from two independent experiments are reported. […]
(§15) (also on this page, place not known: polyso rbate vancomycin , concentr ation 80 . wer e µ l (10 1-105 10 10 previously n - TL C three S76: (Ala10-teixobactin) literature.7 Lipid II Lipid II: Compound 8 = 1:1 Lipid II: Compound 16 = 1:1 Lipid II: Compound 8 = 1:2 Lipid II: Compound 16 = 1:2 Lipid II: Compound 8 = 1:4)

[4] = Lipid II TLC binding assay; conditions: peptide : lipid II 2 : 1; 50 mM Tris/HCl, pH 7.5, 30 min, room temperature; three independent experiments
Procedure: X. Complex formation of teixobactin with lipid II and geranyl pyrophosphate Complex formation of teixobactin analogues 8 (Ala10-teixobactin) and 16 (Arg10-teixobactin) with lipid II and geranyl pyrophosphate was performed using TLC as described previously.7 Binding of teixobactin to lipid II and geranyl pyrophosphate was analysed by incubating 30 µL of 2 nmol of each precursor with 2 or 4 nmoles of teixobactin in 50 mM Tris/HCl, pH 7.5, for 30 min at room temperature. Complex formation was analysed by extracting unbound precursors from the reaction mixture with 30 µL n- butanol/6M pyridine acetate (pH 4.2) (2:1; vol/vol) followed by TLC analysis of the organic layer using chloroform/methanol/water/ammonia (88:48:10:1, v/v/v/v) as the solvent and detection of lipid/phosphate containing precursors by phosphomolybdic acid staining. The TLC figures represent the results obtained through thr ee independent experiments.
Figure S76 : Binding of teixobactin analogues 8 (Ala10-teixobactin ) and 16 (Arg10-teixobactin) with lipid II using the protocols described in literature .7 Partial binding is observed when the ratio of lipid II to the analogue is 1:1 (indicated by lighter spots on the TLC) and complete binding is observed when the ratio of lipid II to the analogue is 1:2 in case of analogue 16 and 1:4 in case of analogue 8 (indicated […]
as §15

rabbit erythrocytes = type: cell-based; conditions: rabbit erythrocytes 4% v/v; peptides 0.195 – 250 µg/ml; 37°C, 1 h; haemoglobin release spectrophotometrically; average of triplicate experiments
Procedure: Fig. 5 Hemolytic activity of teixobactin analogues 12 and 13 for rabbit erythrocytes. The blood cells were exposed to various concentrations of peptides for 1 h and the release of haemoglobin was determined spectrophotometrically. Each value represents an average of triplicate experiments.
Cytotoxicity assay by Formazan bioreduction
Medium (DMEM) supplemented with 10% serum. The cells were repeatedly rinsed with Hank’s
in HBSS 24 hrs post-seeding.
were incubated for 3 hrs at 37°C.
XII. Haemolytic Assay Protocol
Hemolytic assay was performed

[5] = MRSA 1 (MRSA ATCC 700699), 37 °C

Row | Compound | MIC (without polysorbate 80) (MRSA 1: MRSA ATCC 700699; ATCC 700699, 24 h) [µg/mL] | MBC (MRSA 1: MRSA ATCC 700699; [5]) [μg mL^–1] | MIC (with polysorbate 80) (MRSA 1: MRSA ATCC 700699; 37 °C) [µg/mL] | MIC (without polysorbate 80) ([1]; 3: DM21455 (eye, 24 h)) [µg/mL] | MIC (with polysorbate 80) ([1]; 37 °C, 24 h) [µg/mL] | MIC (without polysorbate 80) [2] [µg/mL] | MIC (with polysorbate 80) [2] [µg/mL] | MBC [2] [μg mL^–1] | MIC (without polysorbate 80) ([3]; 2: DR 42412 (sputum, 24 h)) [µg/mL] | MIC (with polysorbate 80) ([3]; 37 °C, 24 h) [µg/mL] | MIC (without polysorbate 80) (VRE 1: VRE ATCC 700802; ATCC 700802, 24 h) [µg/mL] | MIC (with polysorbate 80) (VRE 1: VRE ATCC 700802) [µg/mL] | MIC (without polysorbate 80) (VRE 2: VRE ATCC 29212; ATCC 29212, 24 h) [µg/mL] | MIC (with polysorbate 80) (VRE 2: VRE ATCC 29212) [µg/mL] | lipid II spot on TLC [4] | further results
1 | CC[C@H](C)[C@H](NC(=O)[C@@H](Cc1ccccc1)NC)C(=O)N[C@@H](CO)C(=O)N[C@H](CCC(N)=O)C(=O)N[C@@H](C(=O)N[C@H](C(=O)N[C@@H](CO)C(=O)N[C@H]1C(=O)N[C@@H](C)C(=O)N[C@@H](CC(C)C)C(=O)N[C@@H]([C@@H](C)CC)C(=O)O[C@H]1C)[C@@H](C)CC)[C@@H](C)CC [Compound 13, Leu10-teixobactin] (H-[dNMeF]IS[dQ][d(aIle)]IS[dT]ALI; ester 8-C) | 2 (≈ 1.66 µM) | 2 | 0.25 (≈ 0.208 µM) | 2 (≈ 1.66 µM) | ≤ 0.0625 | 1 (≈ 0.832 µM) | ≤ 0.0625 | 0.125 | 2 (≈ 1.66 µM) | ≤ 0.0625 | 2 (≈ 1.66 µM) | 0.25 (≈ 0.208 µM) | 2 (≈ 1.66 µM) | 0.25 (≈ 0.208 µM) | complete disappearance of the lipid II spot | MIC (MRSA ATCC 33591; ATCC 33591, 24 h): 0.25 μg mL^–1; MIC (MRSA 1: MRSA ATCC 700699; ATCC 700699, 24 h): 0.25 μg mL^–1; MIC ([1]; 3: DM21455 (eye, 24 h)): ≤0.0625 μg mL^–1; MIC ([3]; 2: DR 42412 (sputum, 24 h)): ≤0.0625 μg mL^–1; MIC (VRE 1: VRE ATCC 700802; ATCC 700802, 24 h): 0.25 μg mL^–1; MIC (VRE 2: VRE ATCC 29212; ATCC 29212, 24 h): 0.25 μg mL^–1; MIC (M. smegmatis ATCC 607; ATCC 607, 72 h): ~1 μg mL^–1; time to complete bactericidal activity (MRSA DM21455): ≤ 8 h
2 | CC[C@H](C)[C@H](NC(=O)[C@@H](Cc1ccccc1)NC)C(=O)N[C@@H](CO)C(=O)N[C@H](CCC(N)=O)C(=O)N[C@@H](C(=O)N[C@H](C(=O)N[C@@H](CO)C(=O)N[C@H]1C(=O)N[C@@H](C)C(=O)N[C@@H](CCCNC(=N)N)C(=O)N[C@@H]([C@@H](C)CC)C(=O)O[C@H]1C)[C@@H](C)CC)[C@@H](C)CC [Compound 16, Arg10-teixobactin] | 4 (≈ 3.21 µM) | 2 | 1 (≈ 0.804 µM) | 4 (≈ 3.21 µM) | 0.5 (≈ 0.402 µM) | 2 (≈ 1.61 µM) | 0.25 (≈ 0.201 µM) | 1 | 2 (≈ 1.61 µM) | 0.125 (≈ 0.1 µM) | 4 (≈ 3.21 µM) | 2 (≈ 1.61 µM) | 4 (≈ 3.21 µM) | 2 (≈ 1.61 µM) | complete disappearance of the lipid II spot | MIC (MRSA ATCC 33591; MRSA ATCC 33591, Mueller Hinton broth (Oxoid), peptides in DMSO containing 0.002% polysorbate 80, 37°C, 24 h, triplicate): 2 μg mL^–1; MIC (MRSA 1: MRSA ATCC 700699; MRSA 1 (MRSA ATCC 700699), Mueller Hinton broth, 37 °C, 24 h (Table 2)): 1 μg mL^–1; MBC ([1]; MRSA 3 (MRSA DM21455), plated on MHA, 37 °C, 24 h): 1 μg mL^–1; MIC ([1]; MRSA 3 (MRSA DM21455, eye, clinical isolate), Mueller Hinton broth, 37 °C, 24 h (Table 2)): 0.5 μg mL^–1; MBC ([3]; MRSA 2 (MRSA DR 42412), plated on MHA, 37 °C, 24 h): 0.5 μg mL^–1; MIC ([3]; MRSA 2 (MRSA DR 42412, sputum, clinical isolate), Mueller Hinton broth, 37 °C, 24 h (Table 2)): 0.125 μg mL^–1; MIC (VRE 1: VRE ATCC 700802; VRE 1 (Enterococcus faecalis VRE ATCC 700802), Mueller Hinton broth (Table 2)): 2 μg mL^–1; MIC (VRE 2: VRE ATCC 29212; VRE 2 (Enterococcus faecalis VRE ATCC 29212), Mueller Hinton broth (Table 2)): 2 μg mL^–1; MIC (M. smegmatis ATCC 607; M. smegmatis ATCC 607, Middlebrook 7H9 broth with 5% ADC, 37°C, 140RPM, reading after 72 hours): 1–2 μg mL^–1
3 | melittin |  |  |  |  |  |  |  |  |  |  |  |  |  |  |  | haemolytic activity (rabbit erythrocytes): substantial haemolytic activity
